The subject of assay [1] is phosphorylation of ERK1/2 on Thr202/Tyr204 in mouse primary B cells. The assay is described as follows: p-ERK1/2 western blot in αIgM + IL-4 stimulated mouse B cells. It counts as cell-based. On the procedure: IPI-3063 is a p110δ selective compound with an IC50 = 0.1 nM in p110δ-specific cell-based assays and cellular IC50 values for the other class I PI3K isoforms are at least 1,000-fold higher (Table 2) ([11]). […] To test the effects of p110γ inhibition, we used AS-252424 compound with a biochemical IC50 = 30 nM for p110γ ([17]). We assessed the effects of both IPI-3063 and IPI-443 on PI3K activity in mouse primary B cells stimulated with αIgM + IL-4, by evaluating phosphorylation of AKT at the serine 473 residue (Figures 1A,C) as well as the phosphorylation of ERK1/2 on Thr202/Tyr204 residues (Figures 1B,C). Cells were treated with a pan-PI3K inhibitor GDC-0941 or with various concentrations of IPI-3063 or IPI-443, or DMSO (0.1%) as the diluent control. Separate cultures were treated with the p110γ inhibitor AS-252424 or its diluent control (0.1% EtOH). MK-2206, an AKT inhibitor, which also reduces AKT S473 phosphorylation, was also used as a control to show ERK1/2 phosphorylation is independent of AKT activity. […]
Analysis was performed on western blots using ImageJ to measure mean fluorescence intensities of each band. Phospho-AKT S473 and phospho-ERK1/2 signal was normalized with actin measurements and fold change was calculated using the stimulated/no drug control.
(In general: A western blot detects proteins with antibodies after separation by electrophoresis.)

Assay [2] has as its system AKT phosphorylation in bone marrow-derived myeloid cells. The assay is described as follows: AKT phosphorylation in myeloid cells stimulated with macrophage colony stimulating factor. It counts as cell-based. The note with it: data not shown.
Assay [3] relates to LPS-stimulated mouse B cells. Kind of assay: mouse plasmablast differentiation (CD138+B220lo). It counts as cell-based. The following applies: 72 h. On the procedure:
Figure 5 IPI-3063 potently […] mouse B cell antibody switching and inhibits plasmablast differentiation. Purified B cells were pretreated with inhibitors, then stimulated with αCD40 + IL-4 (B) or LPS + IL-4 (C) for 96 h to induce switching to IgG1 or LPS (D) for 72 h to induce plasmablast differentiation. Class switching to IgG1 was measured by the 7AAD^−CFSE^loB220^+IgG1^+ cells [(A), upper panels]. Plasmablast percentages were calculated by % 7AAD^−CFSE^loCD138^+B220^lo population [(A), lower]. Supernatant was harvested (E) for IgM ELISA. Concentrations used were 1 nM, 10 nM, 100 nM, 1 µM for IPI-443 and 1, 10, 30, 100 nM for IPI-3063. Low concentrations of IPI-3063 were 0.01 and 0.1 nM (D). AS252424 concentrations were 100 nM, 300 nM, and 1 µM, and GDC-0941 was at 500 nM. Samples were collected by time (*P < 0.05, **P < 0.001, ***P < 0.0001 one-way ANOVA with Newman–Keuls multiple comparison test). […]
We also evaluated plasmablast differentiation and IgM secretion in LPS-stimulated cells (Figure 5D). […]
Mouse splenic B cells were purified by negative selection (eBioscience Magnisort Mouse B cell enrichment kit). B-cell purity was >95% as measured by FACS analysis (FACSCalibur and CellQuest software; BD Biosciences) using anti-B220 antibody (BioLegend). […]

In another assay the target is p110β (Homo sapiens, UniProt P42338). Kind of assay: isoform-specific cell-based assay, pAKT S473 ELISA. The arrangement: endogenous in cells; host or cells: 786.0. The note with it: read-out: Cellular IC50. On the procedure: Phospho-Akt1 (S473) sandwich ELISA antibody kit (Cell Signaling Technology, cat. no. 7143) was utilized to analyze pAKT signal in cells as described previously by Winkler et al. ([11]) (for data see Table 2). Briefly, SKOV3 and 786.0 cells were seeded into 96-well cell culture-graded plates at a density of […] per 200 µl culture media per well. Raji and Raw264.7 were seeded at the same density in FBS-free media. After overnight incubation at 5% CO2 and 37°C, the cells were treated with inhibitor for 30 min. Raji cells were stimulated with 10 µg/mL anti-human IgM (Jackson ImmunoResearch) for 30 min and Raw264.7 cells with 25 nM C5a (RnD Systems) for 3 min in the presence of inhibitor. SKOV3 and 786.0 cells were not stimulated. Medium was then aspirated and 50 µL/well of ice-cold lysis buffer was added. pAKT level was determined according to the manufacturer’s instruction.
Chain of p110β (P42338 whole entry, canonical isoform): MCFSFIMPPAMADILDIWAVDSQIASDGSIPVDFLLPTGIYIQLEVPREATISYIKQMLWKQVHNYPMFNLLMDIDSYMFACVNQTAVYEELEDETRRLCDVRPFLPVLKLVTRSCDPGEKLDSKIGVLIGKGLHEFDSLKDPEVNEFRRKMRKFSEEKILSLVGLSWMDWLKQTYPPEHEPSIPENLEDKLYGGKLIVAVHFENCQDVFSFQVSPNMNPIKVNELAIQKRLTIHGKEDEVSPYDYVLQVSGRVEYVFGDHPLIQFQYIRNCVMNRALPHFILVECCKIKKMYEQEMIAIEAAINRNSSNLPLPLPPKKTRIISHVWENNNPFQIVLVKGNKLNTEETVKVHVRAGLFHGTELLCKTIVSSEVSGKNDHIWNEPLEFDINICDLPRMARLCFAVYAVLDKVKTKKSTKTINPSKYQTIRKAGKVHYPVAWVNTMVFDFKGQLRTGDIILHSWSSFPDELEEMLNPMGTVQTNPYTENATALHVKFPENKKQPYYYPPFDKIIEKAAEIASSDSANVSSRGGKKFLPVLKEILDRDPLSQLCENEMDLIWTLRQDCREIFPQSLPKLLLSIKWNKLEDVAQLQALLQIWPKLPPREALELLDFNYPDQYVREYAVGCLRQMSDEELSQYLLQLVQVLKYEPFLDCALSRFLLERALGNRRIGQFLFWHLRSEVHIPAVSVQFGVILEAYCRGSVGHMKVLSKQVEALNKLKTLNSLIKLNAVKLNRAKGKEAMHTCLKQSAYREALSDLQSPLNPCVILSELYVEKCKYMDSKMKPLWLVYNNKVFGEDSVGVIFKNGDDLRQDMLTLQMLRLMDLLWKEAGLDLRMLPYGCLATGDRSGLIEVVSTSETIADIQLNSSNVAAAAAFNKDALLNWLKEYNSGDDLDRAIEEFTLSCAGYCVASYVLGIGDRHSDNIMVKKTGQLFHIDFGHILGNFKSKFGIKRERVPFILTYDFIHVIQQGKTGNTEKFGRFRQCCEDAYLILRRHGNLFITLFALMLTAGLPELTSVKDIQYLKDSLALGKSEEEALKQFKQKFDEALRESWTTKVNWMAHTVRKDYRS
Chain of p110β (P27986 whole entry partner, canonical isoform): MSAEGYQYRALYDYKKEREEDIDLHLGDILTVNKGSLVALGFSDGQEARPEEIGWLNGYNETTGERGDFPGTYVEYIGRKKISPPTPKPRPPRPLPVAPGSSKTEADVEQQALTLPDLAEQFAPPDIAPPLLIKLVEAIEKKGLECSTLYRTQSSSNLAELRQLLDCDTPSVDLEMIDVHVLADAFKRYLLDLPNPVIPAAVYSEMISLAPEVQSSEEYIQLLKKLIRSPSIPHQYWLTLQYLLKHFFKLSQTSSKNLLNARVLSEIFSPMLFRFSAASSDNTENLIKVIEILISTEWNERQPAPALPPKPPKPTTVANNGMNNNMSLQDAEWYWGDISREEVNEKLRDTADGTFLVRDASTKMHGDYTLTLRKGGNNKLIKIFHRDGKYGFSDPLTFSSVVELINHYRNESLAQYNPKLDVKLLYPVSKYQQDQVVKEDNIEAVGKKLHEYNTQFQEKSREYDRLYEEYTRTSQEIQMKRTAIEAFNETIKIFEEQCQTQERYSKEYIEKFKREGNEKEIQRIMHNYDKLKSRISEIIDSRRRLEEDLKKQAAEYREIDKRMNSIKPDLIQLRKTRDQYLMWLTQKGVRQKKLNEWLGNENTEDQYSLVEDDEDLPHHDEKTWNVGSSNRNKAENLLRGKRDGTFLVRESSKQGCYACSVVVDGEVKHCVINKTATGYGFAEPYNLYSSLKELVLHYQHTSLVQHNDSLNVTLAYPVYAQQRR

For the compound `O=C1NC(=O)/C(=C/c2ccc(-c3ccc(F)cc3O)o2)S1` [AS-252424, reference compound], the “effect on p-ERK1/2” value in assay [1] (αIgM + IL-4) was “no significant effect”. The “effect on AKT phosphorylation” value in assay [2] is on record as “dose-dependent inhibition”. In addition, the “effect on plasmablast differentiation” value in assay [3] is “no significant effect”.
A word on the IC50: it is the concentration at which inhibition is half-maximal. In the case of `CC(C)n1c([C@H](C)Nc2ncnc(N)c2C#N)cc2cccc(-c3ccc(=O)n(C)c3)c2c1=O` [IPI-3063], the “concentration with significant reduction of p-ERK1/2” value in assay [1] (αIgM + IL-4, 1 h stimulation) is recorded as 10 nM. For the same compound, in assay [3] (% CD138+B220lo), the “concentration that decreases plasmablast differentiation” value is no less than 1 nM. In addition, at p110β, the IC50 is 0.103 ± 0.0357 µM.

The values are drawn from paper PMC5491903, “The Selective Phosphoinoside-3-Kinase p110δ Inhibitor IPI-3063 Potently Suppresses B Cell Survival, Proliferation, and Differentiation” (Frontiers in Immunology, 2017).
